These results are taken from US11980598B2, “N-(2-(substituted-naphth-1-yl)ethyl) substituted amide compound, preparation and uses thereof” (BEIJING GREATWAY PHARMACEUTICAL TECHNOLOGY CO., LTD., priority 2017, dated 2024).

Series [1] has as its system Kunming mice. In words: Tail suspension test (TST) in mice. The class given is in vivo, mouse. The settings on record: 10 mg/kg intraperitoneal, 3 days, last 4 of 6 min. As to the method: (§1) Animals: Kunming mice, male, body weight 18-22 g, SPF grade; SD rats, male, body weight 150-180 g, SPF grade. The test was carried out after acclimatization, and the animal was fasted for 12 hours before the test.
(§2) All drugs for the test were suspended and dispersed in a 1% aqueous solution of hydroxypropyl methylcellulose (HPMC), and shaken well before use. […] The doses for administration were all 10 mg/kg. For the concentration and volume for administration, see J Psychiatry Neurosci 2004; 29(2):126-133. The mice were intraperitoneally administered in a volume of 0.5 mL/20 g; and the rats were administered by i.g. in a volume of 2 mL/100 g.
Mice were randomly divided into groups according to weight balance. Intraperitoneal injection was administered for three consecutive days, once a day, and the tail suspension test were performed 30 minutes after the third day. The tail suspension box was 25×25×35 cm, and a small clip was connected with a rope at the center of the top plate. An adhesive tape was stuck to the tail of the mouse 2 cm away from the tail end, and the adhesive tape was clamped with the clip to make the mouse in an inverted position. The duration of immobility was recorded during the last 4 minutes of total 6 minutes observed.

Series [2] deals with human MT1 receptor membrane protein (Homo sapiens (Human), UniProt P48039). Kind of series: MT1 receptor binding test ([3H]-Melotonin competition). The settings on record: for MT1 binding ratio (I %): prescreening, 10^−5 M. As to the method:
(§3) The receptors included a MT1/MT2 receptor and a 5-HT2C receptor. The test was divided into two parts: prescreening and rescreening. The results of prescreening were expressed as the percentage of binding, and the results of rescreening were expressed as the IC50 value (in M, i.e., mol/L).
(§4) (3) Tris-HCl buffer formulation: 50 mM Tris-HCl Buffer, 1 mM EDTA, 5 mM MgCl2, 0.1% NaN3, and then a certain proportion of PMSF was added to make pH 7.4.
(§5) (4) The example compound to be tested was dissolved in DMSO and formulated as a stock solution of 10^−2 M, and then diluted with distilled water to a concentration gradient of […]. The prescreening of the MT receptor binding test was performed at the concentration of 10^−5 M; the prescreening of the 5-HT2C receptor binding test was performed at the concentrations of 10^−5 and 10^−7 M.
(§6) The statistical analysis was performed using GraphPad Prism 5.0 software. The formula for receptor binding test was: inhibition (%)=[(total CPM of binding−CPM of tube with drug)/(total CPM of binding−non-specific CPM)]×100%, wherein CPM was count of a radioactive intensity.
(§7) 10 μL of receptor membrane protein MT1 or MT2 was added to all the tubes. In non-specific binding tubes, 50 μL of a corresponding unlabeled ligand Ago at a concentration of 10^4 M was added to a final concentration of 10 μM, and pre-reacted for 30 minutes. In test tubes, 30 μL of test drug (MT1: a concentration of 10^4-10^−10 M, MT2: a concentration of […]) was added, respectively; all tubes were added with 40 μL [^3H]-Melotonin, respectively. […] The filter paper was taken out and dried by baking, and then placed in a scintillation bottle. 1 mL of the scintillation liquid was added, and the radioactive intensity was measured by a liquid scintillation counter.

Series [3] is described as follows: In vitro metabolism study, human liver microsomal incubation system. The class given is in vitro ADME. As to the method: TSQ Quantum liquid chromatography-mass spectrometer (LC/MS/MS) from Finnigan Inc, USA, chromatography column: TSKgel Amide-80 column (2.0 mm I.D.×100 mm, 5 μm); mobile phase: acetonitrile-water-formic acid (50:50:0.1); flow rate: 0.2 mL/min; injection volume: 5 μL; column temperature: room temperature. Ionization source is electrospray ionization (ESI) with 4.8 KV of spray voltage; capillary temperature (TEM): 300° C.; sheath gas: N2, flow rate: 10 psi; auxiliary gas: N2, flow rate: 1 psi; collision gas (CID): Ar at a pressure of 1.5 mTorr. The mass spectrometry scanning method was selective reaction monitoring (SRM) and detected by positive ion method. The internal standard was a […] solution of aconitine in acetonitrile, the minimum limit of quantification was 5 ng/mL, and the correlation coefficient was >0.99.
Approximately 10 mg of each sample to be tested was accurately weighed, dissolved in 0.1 mL of DMSO, and serially diluted with purified water to a 10 μM, 1 μM standard stock solution. An ice bath was operated and the incubation system for detection was formulated according to Table 4. NADPH was added to the incubation system to start the reaction, and then 50 μL was immediately added to 150 μL acetonitrile as a zero-time sample and a 1 μM standard curve sample. Another 1 μM standard stock solution was added to the incubation system, and then 50 μL was immediately added to 150 μL acetonitrile as a 0.1 μM standard curve sample. […] Each sample was shaken, and centrifuged at 18000 g for 10 min. The supernatant was taken for LC/MS/MS injection and determination.

The test system of series [4] is Kunming mice. In words: Forced mouse swimming test. The class given is in vivo. The settings on record: 10 mg/kg intraperitoneal, 3 days, last 4 of 6 min. The protocol:
as §1, §2
Animal grouping and administration method were the same as those in the tail suspension test in mice. The mice were placed in a round glass vessel with a height of 20 cm, an inner diameter of 12 cm, a water depth of 10 cm and a water temperature of 25° C.

The target in series [5] is human MT2 receptor membrane protein (Homo sapiens (Human), UniProt P49286). Kind of series: MT2 receptor binding test ([3H]-Melotonin competition). The conditions noted are these: for MT2 binding ratio (I %): prescreening, 10^−5 M. As to the method:
as §3, §4, §5, §6, §7

Series [6] relates to SD rats. Kind of series: Forced rat swimming test. The conditions noted are these: 10 mg/kg i.g., 3 days, last 5 of 6 min. The class given is in vivo. As to the method: as §1, §2
Rats were randomly divided into groups according to weight balance. Rats were administered by i.g. for three consecutive days, once a day. One hour after administration on the third day, the forced swimming test was performed. The rats were placed in a round glass jar with a height of 40 cm, an inner diameter of 18 cm, a water depth of 23 cm, and a water temperature of 25° C. The rats were allowed to swim for 6 minutes, and the accumulated immobility time in the last 5 minutes was recorded.

[7] abbreviates: incubation time 0 min, 1 μM, 1 mg/mL microsome, 37° C.

The structures appear in SMILES notation.

Sequence of human MT1 receptor membrane protein (P48039 whole entry): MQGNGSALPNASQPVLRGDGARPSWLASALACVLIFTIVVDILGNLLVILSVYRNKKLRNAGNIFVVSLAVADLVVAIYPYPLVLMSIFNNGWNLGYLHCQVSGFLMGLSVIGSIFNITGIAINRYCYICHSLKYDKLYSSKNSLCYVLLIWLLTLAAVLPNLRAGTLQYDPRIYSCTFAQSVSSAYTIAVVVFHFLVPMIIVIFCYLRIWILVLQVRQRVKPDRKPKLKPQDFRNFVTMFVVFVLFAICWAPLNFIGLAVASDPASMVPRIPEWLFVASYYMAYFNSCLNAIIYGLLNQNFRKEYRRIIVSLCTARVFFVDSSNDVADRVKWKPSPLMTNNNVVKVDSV
Sequence of human MT2 receptor membrane protein (P49286 whole entry): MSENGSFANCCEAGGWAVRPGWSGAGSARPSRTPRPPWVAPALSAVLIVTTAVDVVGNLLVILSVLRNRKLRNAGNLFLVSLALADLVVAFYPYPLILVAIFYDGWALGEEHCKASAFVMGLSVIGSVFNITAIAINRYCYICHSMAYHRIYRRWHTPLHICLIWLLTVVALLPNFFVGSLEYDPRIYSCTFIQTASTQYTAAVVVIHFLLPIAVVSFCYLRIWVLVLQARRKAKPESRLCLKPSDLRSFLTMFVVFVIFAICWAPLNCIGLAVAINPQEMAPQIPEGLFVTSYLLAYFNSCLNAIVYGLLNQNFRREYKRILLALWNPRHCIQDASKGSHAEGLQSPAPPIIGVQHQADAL

`COc1cc2c(CCNC(C)=O)cccc2cc1Cl` [Example 2, N-(2-(6-chloro-7-methoxy-naphthalen-1-yl)ethyl)acetamide]: the Immobility time in series [1] is 69.4 ± 23.3 s; in series [4], 81.3 ± 20.3 s; in series [6] it was 61.3 ± 29.8 s. The “MT1 binding ratio (I %)” value in series [2] is recorded as 84%. Also, the results for the “Concentration measured at incubation time point” value (“Concentration measured” for short) in series [3] (setting [7]), in series [3] (incubation time 5 min) and in series [3] (incubation time 15 min) were 1.000 ± 0.036 µM, 0.420 ± 0.079 µM and 0.039 ± 0.003 µM, respectively. The “MT2 binding ratio (I %)” value in series [5] turned out to be 78%.

`[2H]C([2H])([2H])Oc1cc2c(CCNC(C)=O)cccc2cc1F` [Example 3, N-(2-(6-fluoro-7-deuteromethoxy-naphthalen-1-yl)ethyl)acetamide]: the melting point (in general, the temperature of the solid-liquid transition) was in the range of 141 to 144 °C. In series [1], this compound yielded an Immobility time of 77.7 ± 28.6 s. For the same compound, the “MT1 binding ratio (I %)” value in series [2] was 66%. Also, the “Concentration measured” value in series [3] (setting [7]) amounted to 1.000 ± 0.041 µM. In series [3] (incubation time 5 min), the “Concentration measured” value amounted to 0.395 ± 0.047 µM. Further, the “Concentration measured” value in series [3] (incubation time 15 min) was 0.029 ± 0.002 µM. This compound also had an Immobility time in series [4] of 83.3 ± 30.7 s. The “MT2 binding ratio (I %)” value in series [5] came out at 57%. Further, the Immobility time in series [6] is recorded as 76.1 ± 30.2 s.

Consider `COc1cc2c(CCNC(C)=O)cccc2cc1F` [Example 4, N-(2-(6-fluoro-7-methoxy-naphthalen-1-yl)ethyl)acetamide], for which the melting point fell in the range of 140 to 144 °C. The same compound displayed an Immobility time in series [1] of 76.6 ± 18.4 s. In addition, in series [2], the “MT1 binding ratio (I %)” value worked out at 77%. Besides, the IC50 – broadly, the concentration that inhibits the measured activity by half – in series [2] (rescreening) was 0.23 ± 0.24 nM. Moreover, the “Concentration measured” value in series [3] (setting [7]) came to 1.001 ± 0.017 µM. In addition, the “Concentration measured” value in series [3] (incubation time 5 min) turned out to be 0.601 ± 0.009 µM. The “Concentration measured” value in series [3] (incubation time 15 min) was 0.048 ± 0.003 µM. Further, the “Concentration measured” value in series [3] (incubation time 30 min) is 0.011 ± 0.002 µM. In addition, the Immobility time in series [4] was 75.6 ± 26.7 s. Further, the “MT2 binding ratio (I %)” value in series [5] came out at 84%. Moreover, the 50% inhibitory concentration (IC50) in series [5] (rescreening) came out at 0.67 ± 0.08 nM. In series [6], this compound registered an Immobility time of 71.4 ± 40.3 s.

On to `[2H]C([2H])([2H])Oc1cc2c(CCNC(=O)CC)cccc2cc1Cl` [Example 5, N-(2-(6-chloro-7-deuteromethoxy-naphthalen-1-yl)ethyl)propanamide], for which the values for the Immobility time in series [1], in series [4] and in series [6] were 68.8 ± 17.3 s, 96.4 ± 14.4 s and 66.2 ± 35.1 s, respectively. The “MT1 binding ratio (I %)” value in series [2] is on record as 81%. Further, the “Concentration measured” value amounted to 1.000 ± 0.032 µM in series [3] (setting [7]), 0.675 ± 0.044 µM in series [3] (incubation time 5 min) and 0.116 ± 0.010 µM in series [3] (incubation time 15 min). Besides, the “MT2 binding ratio (I %)” value in series [5] is given as 44%.

Regarding `CCC(=O)NCCc1cccc2cc(Cl)c(OC)cc12` [Example 6, N-(2-(6-chloro-7-methoxy-naphthalen-1-yl)ethyl)propanamide], the “MT1 binding ratio (I %)” value in series [2] is recorded as 77%. In addition, the “Concentration measured” value was found to be 1.000 ± 0.042 µM in series [3] (setting [7]), 0.471 ± 0.051 µM in series [3] (incubation time 5 min) and 0.056 ± 0.005 µM in series [3] (incubation time 15 min). Also, the “MT2 binding ratio (I %)” value in series [5] is reported as 36%.

For the compound `CCC(=O)NCCc1cccc2cc(F)c(OC)cc12` [Example 7, N-(2-(6-fluoro-7-methoxy-naphthalen-1-yl)ethyl)propanamide], the “MT1 binding ratio (I %)” value in series [2] was determined as 73%. Moreover, the “Concentration measured” value worked out at 1.000 ± 0.035 µM in series [3] (setting [7]), 0.505 ± 0.033 µM in series [3] (incubation time 5 min) and 0.065 ± 0.007 µM in series [3] (incubation time 15 min). In series [5], the “MT2 binding ratio (I %)” value was found to be 69%.

With `[2H]C([2H])([2H])Oc1ccc2cccc(CCNC(C)=O)c2c1` [d3-Ago, d3-Agomelatine, reference compound], the “Concentration measured” value in series [3] (setting [7]) was 0.999 ± 0.103 µM; in series [3] (incubation time 5 min), 0.235 ± 0.022 µM; in series [3] (incubation time 15 min) it was 0.004 ± 0.003 µM.
